What follows are compounds tested against T1, MAGL (Homo sapiens, UniProt Q99685) (assay: 2-AG assay: MAGL inhibitory activity by hydrolysis of 2-arachidonoylglycerol to arachidonic acid, mass spectrometry). Conditions: 2-AG assay (values marked [b]).
T1 sequence (Q99685 1-303): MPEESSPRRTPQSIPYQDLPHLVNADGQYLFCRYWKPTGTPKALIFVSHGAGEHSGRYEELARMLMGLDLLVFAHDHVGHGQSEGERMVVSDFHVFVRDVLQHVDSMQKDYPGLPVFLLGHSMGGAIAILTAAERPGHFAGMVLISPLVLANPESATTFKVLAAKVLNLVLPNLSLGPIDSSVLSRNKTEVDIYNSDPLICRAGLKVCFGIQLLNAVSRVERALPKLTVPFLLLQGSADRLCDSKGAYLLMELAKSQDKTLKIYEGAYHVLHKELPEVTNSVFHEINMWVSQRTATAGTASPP
Format: biochemical
Procedure, shortened: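 Human MAGL […] was preincubated 15 min at RT with compound ([…], 3-fold steps) in 50 mM Tris, 1 mM EDTA, 0.01% Tween. 2-AG (8 μM) was then added for 30 min at RT. Arachidonic acid was quantified by RapidFire SPE–triple quadrupole MS in negative ESI as its ratio to a d8-arachidonic acid standard.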

Compared with `CCC1(COc2ncc(C(=O)N3CCN(c4nc5nc(Cl)ccc5o4)CC3)cc2C)COC1` [Example 159, (4-(5-chlorooxazolo[4,5-b]pyridin-2-yl)piperazin-1-yl)(6-((3-ethyloxetan-3-yl)methoxy)-5-methylpyridin-3-yl)methanone], `Cc1cc(C(=O)N2CCN(c3nc4nc(Cl)ccc4o3)CC2)cnc1OCC1(F)COC1` [Example 161, (4-(5-chlorooxazolo[4,5-b]pyridin-2-yl)piperazin-1-yl)(6-((3-fluorooxetan-3-yl)methoxy)-5-methylpyridin-3-yl)methanone] is 7.7-fold higher in IC50: 117 nM for the first, 906 nM for the second. The first is the more potent here.

Going from `COCC1(COc2ncc(C(=O)N3CCN(c4nc5nc(Cl)ccc5o4)CC3)cc2C)CC1` [Example 160, (4-(5-chlorooxazolo[4,5-b]pyridin-2-yl)piperazin-1-yl)(6-((1-(methoxymethyl)cyclopropyl)methoxy)-5-methylpyridin-3-yl)methanone] to `COC1(COc2ncc(C(=O)N3CCN(c4nc5nc(Cl)ccc5o4)CC3)cc2C)CC1` [Example 171, (4-(5-chlorooxazolo[4,5-b]pyridin-2-yl)piperazin-1-yl)(6-((1-methoxycyclopropyl)methoxy)-5-methylpyridin-3-yl)methanone], the IC50 falls from 295 nM to 188 nM (1.6-fold).

Compared with `Cc1cc(C(=O)N2CCN(c3nc4nc(Cl)ccc4o3)CC2)cnc1OCC1(CC#N)CC1` [Example 162, 2-(1-(((5-(4-(5-chlorooxazolo[4,5-b]pyridin-2-yl)piperazine-1-carbonyl)-3-methylpyridin-2-yl)oxy)methyl)cyclopropyl)acetonitrile], `Cc1cc(C(=O)N2CCN(c3nc4nc(Cl)ccc4o3)CC2)cnc1OCC1(C#N)CC1` [Example 163, 1-(((5-(4-(5-chlorooxazolo[4,5-b]pyridin-2-yl)piperazine-1-carbonyl)-3-methylpyridin-2-yl)oxy)methyl)cyclopropane-1-carbonitrile] is 2.9-fold higher in IC50: 230 nM for the first, 677 nM for the second. The first is the more potent here.

`Cc1cc(C(=O)N2CCN(c3nc4nc(Cl)ccc4o3)CC2)cnc1OCC1(C#N)COC1` [Example 164, 3-(((5-(4-(5-chlorooxazolo[4,5-b]pyridin-2-yl)piperazine-1-carbonyl)-3-methylpyridin-2-yl)oxy)methyl)oxetane-3-carbonitrile] and `Cc1cc(C(=O)N2CCN(c3nc4nc(Cl)ccc4o3)CC2)cnc1OCC1CCO1` (centres unmarked) [Example 168, (4-(5-chlorooxazolo[4,5-b]pyridin-2-yl)piperazin-1-yl)(5-methyl-6-(oxetan-2-ylmethoxy)pyridin-3-yl)methanone] are within 1.5-fold of each other in IC50: 1540 nM for the first, 1750 nM for the second.

Compared with `Cc1cc(C(=O)N2CCN(c3nc4nc(Cl)ccc4o3)CC2)cnc1OCc1cc(F)cc(C#N)c1` [Example 165, 3-(((5-(4-(5-chlorooxazolo[4,5-b]pyridin-2-yl)piperazine-1-carbonyl)-3-methylpyridin-2-yl)oxy)methyl)-5-fluorobenzonitrile], `Cc1cc(C(=O)N2CCN(c3nc4nc(Cl)ccc4o3)CC2)cnc1OC[C@H](F)CF` [Example 172, (S)-(4-(5-chlorooxazolo[4,5-b]pyridin-2-yl)piperazin-1-yl)(6-(2,3-difluoropropoxy)-5-methylpyridin-3-yl)methanone] is 23-fold higher in IC50: 42 nM for the first, 978 nM for the second.

First: Cc1cc(C(=O)N2CCN(c3nc4nc(Cl)ccc4o3)CC2)cnc1OCC1CCCO1 (centres unmarked) [Example 166, (4-(5-chlorooxazolo[4,5-b]pyridin-2-yl)piperazin-1-yl)(5-methyl-6-((tetrahydrofuran-2-yl)methoxy)pyridin-3-yl)methanone]
Second: Cc1cc(C(=O)N2CCN(c3nc4nc(Cl)ccc4o3)CC2)cnc1OCC1CCCCO1 (centres unmarked) [Example 170, (4-(5-chlorooxazolo[4,5-b]pyridin-2-yl)piperazin-1-yl)(5-methyl-6-((tetrahydro-2H-pyran-2-yl)methoxy)pyridin-3-yl)methanone]
The IC50 of the first is 8.3-fold higher: 475 nM for the first, 57 nM for the second. The second is the more potent here.

Going from `Cc1ccc2oc(N3CCN(C(=O)c4cnc(OCC5(C(F)(F)F)CC5)c(C)n4)CC3)nc2n1` [Example 167, [4-(5-methyloxazolo[4,5-b]pyridin-2-yl)piperazin-1-yl]-[6-methyl-5-[[1-(trifluoromethyl)cyclopropyl]methoxy]pyrazin-2-yl]methanone] to `COc1cc(C(=O)N2CCN(c3nc4nc(C)ccc4o3)CC2)cnc1OCC1(C(F)(F)F)CC1` [Example 169, [5-methoxy-6-[[1-(trifluoromethyl)cyclopropyl]methoxy]-3-pyridyl]-[4-(5-methyloxazolo[4,5-b]pyridin-2-yl)piperazin-1-yl]methanone], the IC50 rises from 63 nM to 138 nM (2.2-fold).

First: Cc1cc(C(=O)N2CCN(c3nc4nc(Cl)ccc4o3)CC2)cnc1OCCC(F)(F)F [Example 173, (4-(5-chlorooxazolo[4,5-b]pyridin-2-yl)piperazin-1-yl)(5-methyl-6-(3,3,3-trifluoropropoxy)pyridin-3-yl)methanone]
Second: Cc1cc(C(=O)N2CCN(c3nc4nc(Cl)ccc4o3)CC2)cnc1OC[C@@H](F)CF [Example 174, (R)-(4-(5-chlorooxazolo[4,5-b]pyridin-2-yl)piperazin-1-yl)(6-(2,3-difluoropropoxy)-5-methylpyridin-3-yl)methanone]
The IC50 of the first is 5.2-fold lower: 135 nM for the first, 706 nM for the second. The first is the more potent here.

First: Cc1cc(C(=O)N2CCN(c3nc4nc(Cl)ccc4o3)CC2)cnc1-c1cnn(C(C)(C)C)c1 [Example 190, [6-(1-tert-butylpyrazol-4-yl)-5-methylpyridin-3-yl]-[4-(5-chloro-[1,3]oxazolo[4,5-b]pyridin-2-yl)piperazin-1-yl]methanone]
Second: Cc1ccc2oc(N3CCN(C(=O)c4cnc(-c5cnn(C(C)(C)C)c5)c(C)c4)CC3)nc2n1 [Example 191, [6-(1-tert-butylpyrazol-4-yl)-5-methylpyridin-3-yl]-[4-(5-methyl-[1,3]oxazolo[4,5-b]pyridin-2-yl)piperazin-1-yl]methanone]
The IC50 of the first is 2.1-fold lower: 46 nM for the first, 98 nM for the second. The first is the more potent here.

First: Cc1cc(C(=O)N2CCN(c3nc4nc(Cl)ccc4o3)CC2)ccc1-c1cn(CC(C)(C)C)nn1 [Example 231, (4-(5-chlorooxazolo[4,5-b]pyridin-2-yl)piperazin-1-yl)(3-methyl-4-(1-neopentyl-1H-1,2,3-triazol-4-yl)phenyl)methanone]
Second: CC(C)(C)Cn1cc(-c2ccc(C(=O)N3CCN(c4nc5nc(Cl)ccc5o4)CC3)cc2C#N)nn1 [Example 233, 5-(4-(5-chlorooxazolo[4,5-b]pyridin-2-yl)piperazine-1-carbonyl)-2-(1-neopentyl-1H-1,2,3-triazol-4-yl)benzonitrile]
The IC50 of the first is 5-fold lower: 4 nM for the first, 20 nM for the second.

Compared with `Cc1cc(C(=O)N2CCN(c3nc4nc(Cl)ccc4o3)CC2)ccc1-c1cnn(CC(C)(C)C)n1` [Example 232, (4-(5-chlorooxazolo[4,5-b]pyridin-2-yl)piperazin-1-yl)(3-methyl-4-(2-neopentyl-2H-1,2,3-triazol-4-yl)phenyl)methanone], `CC(C)(C)Cn1ncc(-c2ccc(C(=O)N3CCN(c4nc5nc(Cl)ccc5o4)CC3)cc2C#N)n1` [Example 234, 5-(4-(5-chlorooxazolo[4,5-b]pyridin-2-yl)piperazine-1-carbonyl)-2-(2-neopentyl-2H-1,2,3-triazol-4-yl)benzonitrile] is 10-fold higher in IC50: 1 nM for the first, 10 nM for the second.

`Cc1ccc2oc(N3CCN(C(=O)c4ccc(-c5cn(CC(C)(C)C)nn5)c(C#N)c4)CC3)nc2n1` [Example 235, 5-(4-(5-methyloxazolo[4,5-b]pyridin-2-yl)piperazine-1-carbonyl)-2-(1-neopentyl-1H-1,2,3-triazol-4-yl)benzonitrile] was tested, and the IC50 was 104 nM.

— US20220135591A1, “HETEROCYCLIC COMPOUNDS AS INHIBITORS OF MONOACYLGLYCEROL LIPASE (MAGL)” (Hoffmann-La Roche Inc., priority 2019, published 2022)
